Source: the kinase profiling compilation of Christmann-Franck et al. (2016)

Key:
Assay in all cases: KINOMEscan competition binding
Conditions in all cases: compound 10.0 µM; call rule not given here
RIPK2 (human) = RIPK2 (human) (UniProt O43353)
PAK6 (human) = PAK6 (human) (UniProt Q9NQU5)
TYRO3 (human) = TYRO3 (human) (UniProt Q06418)
PLK3 (human) = PLK3 (human) (UniProt Q9H4B4)
CAMK1 (human) = CAMK1 (human) (UniProt Q14012)
MAP3K5 (human) = MAP3K5 (human) (UniProt Q99683)
MAPK1 (human) = MAPK1 (human) (UniProt P28482)
NTRK1 (human) = NTRK1 (human) (UniProt P04629)
Chain of NTRK1 (human) (P04629 whole entry, looked up): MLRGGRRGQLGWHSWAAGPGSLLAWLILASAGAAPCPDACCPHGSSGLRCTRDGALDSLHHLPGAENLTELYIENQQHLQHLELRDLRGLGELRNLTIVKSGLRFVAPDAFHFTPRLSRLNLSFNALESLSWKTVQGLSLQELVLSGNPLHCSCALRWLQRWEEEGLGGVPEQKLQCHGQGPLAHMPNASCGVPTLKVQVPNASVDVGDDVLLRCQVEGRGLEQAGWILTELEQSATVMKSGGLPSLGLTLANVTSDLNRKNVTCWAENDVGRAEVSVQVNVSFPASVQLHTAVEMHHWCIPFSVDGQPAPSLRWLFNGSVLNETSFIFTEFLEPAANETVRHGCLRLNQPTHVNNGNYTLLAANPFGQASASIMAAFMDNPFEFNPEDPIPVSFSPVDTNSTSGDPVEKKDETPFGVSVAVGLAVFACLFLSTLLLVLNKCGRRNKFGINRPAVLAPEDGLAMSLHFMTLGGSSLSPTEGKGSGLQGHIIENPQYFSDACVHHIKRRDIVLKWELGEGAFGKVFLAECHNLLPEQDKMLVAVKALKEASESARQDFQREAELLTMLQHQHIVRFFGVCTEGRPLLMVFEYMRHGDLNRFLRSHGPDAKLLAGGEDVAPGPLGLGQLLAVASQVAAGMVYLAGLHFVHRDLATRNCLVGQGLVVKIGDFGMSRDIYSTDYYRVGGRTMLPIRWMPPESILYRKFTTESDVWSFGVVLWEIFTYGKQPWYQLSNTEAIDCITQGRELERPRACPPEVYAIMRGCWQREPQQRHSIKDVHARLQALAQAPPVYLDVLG

LIMK1 (human) = LIMK1 (human) (UniProt P53667)
STK36 (human) = STK36 (human) (UniProt Q9NRP7)
NEK2 (human) = NEK2 (human) (UniProt P51955)
FGFR4 (human) = FGFR4 (human) (UniProt P22455)
ACVR1B (human) = ACVR1B (human) (UniProt P36896)
PHKG1 (human) = PHKG1 (human) (UniProt Q16816)
[1] = molecular target: JAK1 JH2 pseudokinase (human) (UniProt P23458)
BMPR1A (human) = BMPR1A (human) (UniProt P36894)
EGFR (human) = EGFR (human) (UniProt P00533)
PHKG2 (human) = PHKG2 (human) (UniProt P15735)
FGFR2 (human) = FGFR2 (human) (UniProt P21802)
FGFR3 (human) = FGFR3 (human) (UniProt P22607)
ERBB2 (human) = ERBB2 (human) (UniProt P04626)
Chain of ERBB2 (human) (P04626 whole entry, looked up): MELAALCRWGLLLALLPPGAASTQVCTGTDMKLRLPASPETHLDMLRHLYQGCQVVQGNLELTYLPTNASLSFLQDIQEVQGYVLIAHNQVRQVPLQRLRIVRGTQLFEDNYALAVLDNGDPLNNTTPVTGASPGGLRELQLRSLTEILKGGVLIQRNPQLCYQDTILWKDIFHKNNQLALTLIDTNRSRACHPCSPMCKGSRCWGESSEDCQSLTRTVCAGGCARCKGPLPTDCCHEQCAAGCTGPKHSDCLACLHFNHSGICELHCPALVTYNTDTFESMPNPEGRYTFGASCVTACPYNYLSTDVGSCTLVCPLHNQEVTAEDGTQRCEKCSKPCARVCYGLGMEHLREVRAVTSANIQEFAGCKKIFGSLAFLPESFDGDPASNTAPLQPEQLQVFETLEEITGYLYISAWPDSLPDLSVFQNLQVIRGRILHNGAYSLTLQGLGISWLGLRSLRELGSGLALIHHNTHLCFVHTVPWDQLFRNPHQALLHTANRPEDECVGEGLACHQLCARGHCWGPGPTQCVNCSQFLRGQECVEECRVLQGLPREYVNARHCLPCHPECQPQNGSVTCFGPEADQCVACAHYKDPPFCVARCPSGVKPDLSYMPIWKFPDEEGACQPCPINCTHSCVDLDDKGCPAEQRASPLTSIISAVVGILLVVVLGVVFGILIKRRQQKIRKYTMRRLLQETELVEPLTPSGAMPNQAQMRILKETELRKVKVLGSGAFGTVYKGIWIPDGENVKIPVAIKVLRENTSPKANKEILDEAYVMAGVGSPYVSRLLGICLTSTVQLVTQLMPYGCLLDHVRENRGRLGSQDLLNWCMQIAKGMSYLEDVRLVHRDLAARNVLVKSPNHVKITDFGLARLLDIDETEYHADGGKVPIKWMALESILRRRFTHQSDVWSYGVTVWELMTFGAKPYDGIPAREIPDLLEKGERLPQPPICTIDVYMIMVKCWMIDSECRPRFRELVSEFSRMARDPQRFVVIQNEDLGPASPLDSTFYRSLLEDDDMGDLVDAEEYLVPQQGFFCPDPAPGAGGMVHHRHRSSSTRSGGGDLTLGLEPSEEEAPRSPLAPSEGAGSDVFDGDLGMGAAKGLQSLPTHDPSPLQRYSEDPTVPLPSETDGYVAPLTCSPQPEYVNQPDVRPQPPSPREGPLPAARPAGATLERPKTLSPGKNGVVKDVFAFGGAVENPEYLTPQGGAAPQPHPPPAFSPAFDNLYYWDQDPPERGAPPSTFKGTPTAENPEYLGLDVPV

PIM1 (human) = PIM1 (human) (UniProt P11309)
PTK2 (human) = PTK2 (human) (UniProt Q05397)
Chain of PTK2 (human) (Q05397 whole entry, looked up): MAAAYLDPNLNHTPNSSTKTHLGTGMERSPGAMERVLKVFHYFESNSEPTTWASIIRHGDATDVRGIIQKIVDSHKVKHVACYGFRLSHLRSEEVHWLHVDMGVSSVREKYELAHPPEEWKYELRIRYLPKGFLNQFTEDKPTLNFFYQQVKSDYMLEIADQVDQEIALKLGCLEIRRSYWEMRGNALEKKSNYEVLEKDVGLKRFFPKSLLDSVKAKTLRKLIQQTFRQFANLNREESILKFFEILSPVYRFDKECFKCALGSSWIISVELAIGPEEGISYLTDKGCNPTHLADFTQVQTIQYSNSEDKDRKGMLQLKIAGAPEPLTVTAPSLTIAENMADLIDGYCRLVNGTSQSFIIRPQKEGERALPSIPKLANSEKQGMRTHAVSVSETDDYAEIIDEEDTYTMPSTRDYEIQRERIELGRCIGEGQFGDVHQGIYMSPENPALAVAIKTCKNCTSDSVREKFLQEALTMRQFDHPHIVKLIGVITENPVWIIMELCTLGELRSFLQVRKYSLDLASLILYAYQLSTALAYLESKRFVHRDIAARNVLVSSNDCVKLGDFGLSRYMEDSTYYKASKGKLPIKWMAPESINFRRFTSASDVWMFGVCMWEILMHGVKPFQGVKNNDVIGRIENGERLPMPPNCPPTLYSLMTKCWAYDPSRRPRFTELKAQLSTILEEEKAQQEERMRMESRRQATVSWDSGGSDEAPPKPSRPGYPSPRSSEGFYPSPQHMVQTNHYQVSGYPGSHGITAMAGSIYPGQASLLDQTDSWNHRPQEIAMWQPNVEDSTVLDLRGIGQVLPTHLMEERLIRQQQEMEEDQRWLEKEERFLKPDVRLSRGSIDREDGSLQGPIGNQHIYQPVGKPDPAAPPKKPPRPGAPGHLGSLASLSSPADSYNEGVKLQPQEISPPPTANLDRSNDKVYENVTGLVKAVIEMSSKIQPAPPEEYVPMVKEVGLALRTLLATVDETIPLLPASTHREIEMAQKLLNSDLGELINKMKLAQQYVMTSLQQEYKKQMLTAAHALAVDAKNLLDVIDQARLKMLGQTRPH

EPHA4 (human) = EPHA4 (human) (UniProt P54764)
CAMK2B (human) = CAMK2B (human) (UniProt Q13554)
Chain of CAMK2B (human) (Q13554 whole entry, looked up): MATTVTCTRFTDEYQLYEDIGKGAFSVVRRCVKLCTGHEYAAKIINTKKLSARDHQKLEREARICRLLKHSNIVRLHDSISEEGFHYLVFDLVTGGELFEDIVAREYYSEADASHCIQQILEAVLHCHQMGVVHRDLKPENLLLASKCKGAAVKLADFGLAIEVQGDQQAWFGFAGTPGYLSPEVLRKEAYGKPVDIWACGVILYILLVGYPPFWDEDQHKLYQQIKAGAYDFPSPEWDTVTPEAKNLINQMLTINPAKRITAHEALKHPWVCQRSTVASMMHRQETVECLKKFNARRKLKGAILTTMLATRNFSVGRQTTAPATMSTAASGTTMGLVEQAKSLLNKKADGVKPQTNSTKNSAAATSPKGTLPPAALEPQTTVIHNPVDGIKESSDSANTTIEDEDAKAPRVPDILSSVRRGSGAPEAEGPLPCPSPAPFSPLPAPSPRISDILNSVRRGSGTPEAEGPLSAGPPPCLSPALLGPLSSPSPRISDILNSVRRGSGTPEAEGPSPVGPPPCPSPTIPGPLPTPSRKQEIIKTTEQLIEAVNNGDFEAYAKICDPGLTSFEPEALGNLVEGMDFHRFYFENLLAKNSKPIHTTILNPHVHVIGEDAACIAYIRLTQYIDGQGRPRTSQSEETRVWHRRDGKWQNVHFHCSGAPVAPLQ

NEK7 (human) = NEK7 (human) (UniProt Q8TDX7)
ROS1 (human) = ROS1 (human) (UniProt P08922)
PRKG2 (human) = PRKG2 (human) (UniProt Q13237)
EPHB2 (human) = EPHB2 (human) (UniProt P29323)
PAK4 (human) = PAK4 (human) (UniProt O96013)
PTK2B (human) = PTK2B (human) (UniProt Q14289)
MAP3K4 (human) = MAP3K4 (human) (UniProt Q9Y6R4)
ADCK4 (human) = ADCK4 (human) (UniProt Q96D53)
MARK1 (human) = MARK1 (human) (UniProt Q9P0L2)
PLK1 (human) = PLK1 (human) (UniProt P53350)
PRKX (human) = PRKX (human) (UniProt P51817)
PAK7 (human) = PAK7 (human) (UniProt Q9P286)
Chain of PAK7 (human) (Q9P286 whole entry, looked up): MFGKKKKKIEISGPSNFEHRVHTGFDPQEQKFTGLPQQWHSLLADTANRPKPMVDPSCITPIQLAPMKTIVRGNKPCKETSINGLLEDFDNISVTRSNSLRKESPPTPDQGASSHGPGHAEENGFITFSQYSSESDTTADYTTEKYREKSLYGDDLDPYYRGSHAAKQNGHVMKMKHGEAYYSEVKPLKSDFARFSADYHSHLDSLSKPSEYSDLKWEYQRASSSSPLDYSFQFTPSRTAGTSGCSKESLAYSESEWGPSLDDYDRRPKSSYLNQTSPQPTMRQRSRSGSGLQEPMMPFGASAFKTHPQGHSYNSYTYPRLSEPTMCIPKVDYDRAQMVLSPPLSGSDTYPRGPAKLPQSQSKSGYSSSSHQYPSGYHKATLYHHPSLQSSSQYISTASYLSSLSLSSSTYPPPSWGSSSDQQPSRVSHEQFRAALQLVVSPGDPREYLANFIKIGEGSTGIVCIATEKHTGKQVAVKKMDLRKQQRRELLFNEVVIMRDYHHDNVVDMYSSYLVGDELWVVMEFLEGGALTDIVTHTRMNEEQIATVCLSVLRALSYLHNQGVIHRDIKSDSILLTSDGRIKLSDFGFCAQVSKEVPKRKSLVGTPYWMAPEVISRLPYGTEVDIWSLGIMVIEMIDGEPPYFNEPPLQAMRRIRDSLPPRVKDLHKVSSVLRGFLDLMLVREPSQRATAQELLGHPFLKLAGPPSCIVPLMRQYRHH

PRKG1 (human) = PRKG1 (human) (UniProt Q13976)
MAPK9 (human) = MAPK9 (human) (UniProt P45984)
AKT3 (human) = AKT3 (human) (UniProt Q9Y243)
MAPK14 (human) = MAPK14 (human) (UniProt Q16539)
Chain of MAPK14 (human) (Q16539 whole entry, looked up): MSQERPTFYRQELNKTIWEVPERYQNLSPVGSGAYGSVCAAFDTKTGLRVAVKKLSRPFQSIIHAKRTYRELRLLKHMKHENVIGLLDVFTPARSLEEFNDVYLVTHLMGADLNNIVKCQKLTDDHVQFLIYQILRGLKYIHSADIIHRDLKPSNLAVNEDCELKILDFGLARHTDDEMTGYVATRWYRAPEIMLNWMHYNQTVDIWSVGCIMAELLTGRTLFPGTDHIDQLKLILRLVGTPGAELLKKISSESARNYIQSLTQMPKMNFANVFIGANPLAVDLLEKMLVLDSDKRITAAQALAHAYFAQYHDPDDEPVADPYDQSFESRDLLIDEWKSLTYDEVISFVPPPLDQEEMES

kinase still bound, per cent of control (RIPK2 (human)): 6.9%
kinase still bound, per cent of control (PAK6 (human)): 2.6%
kinase still bound, per cent of control (TYRO3 (human)): 0.2%
kinase still bound, per cent of control (PLK3 (human)): no effect (inactive)
kinase still bound, per cent of control (CAMK1 (human)): 8.3%
kinase still bound, per cent of control (MAP3K5 (human)): 1.4%
kinase still bound, per cent of control (MAPK1 (human)): 14%
kinase still bound, per cent of control (NTRK1 (human)): 0%
kinase still bound, per cent of control (LIMK1 (human)): no effect (inactive)
kinase still bound, per cent of control (STK36 (human)): no effect (inactive)
kinase still bound, per cent of control (NEK2 (human)): 0%
kinase still bound, per cent of control (FGFR4 (human)): 0%
kinase still bound, per cent of control (ACVR1B (human)): 2%
kinase still bound, per cent of control (PHKG1 (human)): 0.1%
kinase still bound, per cent of control [1]: 1.8%
kinase still bound, per cent of control (BMPR1A (human)): 4.35%
kinase still bound, per cent of control (EGFR (human)): 21.2%
kinase still bound, per cent of control (PHKG2 (human)): 0%
kinase still bound, per cent of control (FGFR2 (human)): 0.1%
kinase still bound, per cent of control (FGFR3 (human)): 0%
kinase still bound, per cent of control (ERBB2 (human)): no effect (inactive)
kinase still bound, per cent of control (PIM1 (human)): 12.8%
kinase still bound, per cent of control (PTK2 (human)): 0%
kinase still bound, per cent of control (EPHA4 (human)): 3.6%
kinase still bound, per cent of control (CAMK2B (human)): 4.6%
kinase still bound, per cent of control (NEK7 (human)): no effect (inactive)
kinase still bound, per cent of control (ROS1 (human)): 0%
kinase still bound, per cent of control (PRKG2 (human)): 0%
kinase still bound, per cent of control (EPHB2 (human)): 0.15%
kinase still bound, per cent of control (PAK4 (human)): 0.2%
kinase still bound, per cent of control (PTK2B (human)): 0%
kinase still bound, per cent of control (MAP3K4 (human)): 28.3%
kinase still bound, per cent of control (ADCK4 (human)): no effect (inactive)
kinase still bound, per cent of control (MARK1 (human)): 0%
kinase still bound, per cent of control (PLK1 (human)): 1.55%
kinase still bound, per cent of control (PRKX (human)): 24.8%
kinase still bound, per cent of control (PAK7 (human)): 0%
kinase still bound, per cent of control (PRKG1 (human)): 0.15%
kinase still bound, per cent of control (MAPK9 (human)): 0.1%
kinase still bound, per cent of control (AKT3 (human)): no effect (inactive)
kinase still bound, per cent of control (MAPK14 (human)): no effect (inactive)
SMILES: CCS(=O)(=O)Nc1ccc2c(c1)[C@H](/C(=N/c1ccc(CN3CCCCC3)cc1)c1ccccc1)C(=O)N2
